From patent US20240252506A1 (Hoffmann-La Roche Inc., priority 2021, published 2024)
Values after ≈ are worked out from the molar mass of the structure shown. Structures can show the parent of a compound that is named as a salt.

Test system: Escherichia coli ATCC 25922
Assay: Minimal Inhibitory Concentration (MIC) determination, broth microdilution (CLSI M07-A10)
Assay type: cell-based
Conditions: lowest concentration for complete growth inhibition (no visible growth); for Escherichia coli growth inhibition MIC: strain Escherichia coli ATCC 25922, 18-24 hours at 35±2° C.; for MIC: Escherichia coli, ATCC25922, strain Escherichia coli ATCC 25922, 18-24 hours at 35±2° C., read-out: Escherichia coli growth inhibition MIC
Method: Minimal Inhibitory Concentration (MIC) Determination:
The MIC of antibacterial compounds against multiple species and strains was determined using the broth microdilution method according to M07-A10 Clinical and Laboratory Standards Institute (CLSI) guidelines, using the appropriate broth medium. In short, the compound plates were prepared by dispensing 100 μL of each stock solution in the first well of a 96 well microtiter plate (MTP) at a concentration 100-fold higher than the final concentration desired in broth. Eleven serial 2-fold dilutions of the highest concentration were made in DMSO for new compounds and in water (or appropriate solution) for reference compounds [2]. 1 μL of each well was transferred in a new MTP, which served as the test plate by subsequent inoculation. This bacterial suspension was prepared from strains that were first sub-cultured on agar plates and incubated for 18-24 hours as appropriate. Following incubation, the inoculum was prepared from isolated colonies and adjusted to 0.5 McFarland turbidity standard (1 to 2×10^8 Colony Forming Units (CFU)/mL) in 0.9% saline. The bacterial suspension was then diluted 1:200 in appropriate sterile medium and within 15 minutes 100 μL/well were dispensed. Negative controls (lack of bacterial cells) and growth control wells (lack of compound) were included in all plates. MTPs were incubated for 18-24 hours at 35±2° C. in ambient air. The MIC value of each compound, expressed as μg/mL, was determined as the lowest concentration required for complete growth inhibition (no visible growth). • [1] CLSI (2015) Methods for dilution antimicrobial susceptibility tests for bacteria that grow aerobically; Approved Standard, Tenth Edition. CLSI Document M7-A10 (ISBN 1-56238-987-4). Wayne, PA: Clinical and Laboratory Standards Institute, 19087, USA. • [2] CLSI (2017) Performance Standards for Antimicrobial Susceptibility Testing; Twenty-Fifth Informational Supplement. CLSI Document M100-S27, CLSI, Wayne, Pennsylvania 19087, USA.
Table 1 provides the Minimal Inhibitory Concentrations (MIC) in micrograms per millilitre of the compounds of present invention obtained against the strain Escherichia coli ATCC 25922.

Compound | MIC | further results
NCCn1nc2cc3c(c(F)c2n1)CC(CN1CCC2(CC1)CN(c1ccc4c(n1)NC(=O)CO4)C(=O)O2)C3 (single isomer, unassigned) [Example 133, 6-[2-oxo-8-[[2-(2-aminoethyl)-8-fluoro-6,7-dihydro-5H-cyclopenta[f]benzotriazol-6-yl]methyl]-1-oxa-3,8-diazaspiro[4.5]decan-3-yl]-4H-pyrido[3,2-b][1,4]oxazin-3-one dihydrochloride] | – | Escherichia coli growth inhibition MIC (dihydrochloride): 1 µg/mL
NCCn1nc2cc3c(c(F)c2n1)CC(CN1CCC2(CC1)CN(c1cnc4c(n1)NC(=O)CO4)C(=O)O2)C3 (single isomer, unassigned) [Example 134, 6-[2-oxo-8-[[2-(2-aminoethyl)-8-fluoro-6,7-dihydro-5H-cyclopenta[f]benzotriazol-6-yl]methyl]-1-oxa-3,8-diazaspiro[4.5]decan-3-yl]-4H-pyrazino[2,3-b][1,4]oxazin-3-one dihydrochloride] | – | Escherichia coli growth inhibition MIC (dihydrochloride): 0.125 µg/mL
NCCn1nc2cc3c(c(F)c2n1)CC(CN1CCC2(CC1)CN(c1cnc4c(n1)NC(=O)CO4)C(=O)O2)C3 (single isomer, unassigned) [Example 135, 6-[2-oxo-8-[[2-(2-aminoethyl)-8-fluoro-6,7-dihydro-5H-cyclopenta[f]benzotriazol-6-yl]methyl]-1-oxa-3,8-diazaspiro[4.5]decan-3-yl]-4H-pyrazino[2,3-b][1,4]oxazin-3-one dihydrochloride] | – | Escherichia coli growth inhibition MIC (dihydrochloride): ≤0.06 µg/mL
CNCc1nc2cc3c(c(F)c2o1)CC(CN1CCC2(CC1)CN(c1ccc4c(n1)NC(=O)CO4)C(=O)O2)C3 (single isomer, unassigned) [Example 136, 6-[8-[[8-Fluoro-2-(methylaminomethyl)-6,7-dihydro-5H-cyclopenta[f][1,3]benzoxazol-6-yl]methyl]-2-oxo-1-oxa-3,8-diazaspiro[4.5]decan-3-yl]-4H-pyrido[3,2-b][1,4]oxazin-3-one] | 1 µg/mL (≈ 1.86 µM) | –
CNCc1nc2cc3c(c(F)c2o1)CC(CN1CCC2(CC1)CN(c1ccc4c(n1)NC(=O)CO4)C(=O)O2)C3 (single isomer, unassigned) [Example 137, 6-[8-[[8-Fluoro-2-(methylaminomethyl)-6,7-dihydro-5H-cyclopenta[f][1,3]benzoxazol-6-yl]methyl]-2-oxo-1-oxa-3,8-diazaspiro[4.5]decan-3-yl]-4H-pyrido[3,2-b][1,4]oxazin-3-one] | – | Escherichia coli growth inhibition MIC: 0.5 µg/mL
O=C1COc2ncc(N3CC4(CCN(CC5Cc6cc7nc([C@@H]8C[C@@H](O)CN8)oc7c(F)c6C5)CC4)OC3=O)nc2N1 (single isomer, unassigned) [Example 141] | 0.5 µg/mL (≈ 0.863 µM) | –
CN[C@@H](CO)c1nc2cc3c(c(F)c2o1)CC(CN1CCC2(CC1)CN(c1cnc4c(n1)NC(=O)CO4)C(=O)O2)C3 (single isomer, unassigned) [Example 145] | 0.5 µg/mL (≈ 0.881 µM) | –
CN(C)CC(=O)N(C)CCn1nnc2c(F)c3c(c(F)c21)CC(CN1CCC2(CC1)CN(c1cnc4c(n1)NC(=O)CO4)C(=O)O2)C3 (single isomer, unassigned) [Example 152, N-[2-[4,8-difluoro-6-[[2-oxo-3-(3-oxo-4H-pyrazino[2,3-b][1,4]oxazin-6-yl)-1-oxa-3,8-diazaspiro[4.5]decan-8-yl]methyl]-6,7-dihydro-5H-cyclopenta[f]benzotriazol-1-yl]ethyl]-2-(dimethylamino)-N-methyl-acetamide] | 2 µg/mL (≈ 3.05 µM) | –
CN(C)CC(=O)N(C)CCn1nnc2c(F)c3c(c(F)c21)CC(CN1CCC2(CC1)CN(c1cnc4c(n1)NC(=O)CO4)C(=O)O2)C3 (single isomer, unassigned) [Example 153, N-[2-[4,8-difluoro-6-[[2-oxo-3-(3-oxo-4H-pyrazino[2,3-b][1,4]oxazin-6-yl)-1-oxa-3,8-diazaspiro[4.5]decan-8-yl]methyl]-6,7-dihydro-5H-cyclopenta[f]benzotriazol-1-yl]ethyl]-2-(dimethylamino)-N-methyl-acetamide] | – | Escherichia coli growth inhibition MIC: 2 µg/mL
CC(=O)N(C)CCn1nnc2c(F)c3c(c(F)c21)CC(CN1CCC2(CC1)CN(c1cnc4c(n1)NC(=O)CO4)C(=O)O2)C3 (single isomer, unassigned) [Example 156, N-[2-[4,8-difluoro-6-[[2-oxo-3-(3-oxo-4H-pyrazino[2,3-b][1,4]oxazin-6-yl)-1-oxa-3,8-diazaspiro[4.5]decan-8-yl]methyl]-6,7-dihydro-5H-cyclopenta[f]benzotriazol-1-yl]ethyl]-N-methyl-acetamide] | 8 µg/mL (≈ 13.1 µM) | –
CC(=O)N(C)CCn1nnc2c(F)c3c(c(F)c21)CC(CN1CCC2(CC1)CN(c1cnc4c(n1)NC(=O)CO4)C(=O)O2)C3 (single isomer, unassigned) [Example 157, N-[2-[4,8-difluoro-6-[[2-oxo-3-(3-oxo-4H-pyrazino[2,3-b][1,4]oxazin-6-yl)-1-oxa-3,8-diazaspiro[4.5]decan-8-yl]methyl]-6,7-dihydro-5H-cyclopenta[f]benzotriazol-1-yl]ethyl]-N-methyl-acetamide] | – | Escherichia coli growth inhibition MIC: 4 µg/mL
CN(CCn1nnc2c(F)c3c(c(F)c21)CC(CN1CCC2(CC1)CN(c1cnc4c(n1)NC(=O)CO4)C(=O)O2)C3)C(=O)CN (single isomer, unassigned) [Example 166, 2-Amino-N-methyl-N-[2-[4,8-difluoro-6-[[2-oxo-3-(3-oxo-4H-pyrazino[2,3-b][1,4]oxazin-6-yl)-1-oxa-3,8-diazaspiro[4.5]decan-8-yl]methyl]-6,7-dihydro-5H-cyclopenta[f]benzotriazol-1-yl]ethyl]acetamide] | 1 µg/mL (≈ 1.6 µM) | –
CN(CCn1nnc2c(F)c3c(c(F)c21)CC(CN1CCC2(CC1)CN(c1cnc4c(n1)NC(=O)CO4)C(=O)O2)C3)C(=O)CN (single isomer, unassigned) [Example 167, 2-Amino-N-methyl-N-[2-[4,8-difluoro-6-[[2-oxo-3-(3-oxo-4H-pyrazino[2,3-b][1,4]oxazin-6-yl)-1-oxa-3,8-diazaspiro[4.5]decan-8-yl]methyl]-6,7-dihydro-5H-cyclopenta[f]benzotriazol-1-yl]ethyl]acetamide] | – | Escherichia coli growth inhibition MIC: 1 µg/mL
NCCn1nc2cc(F)c3c(c2n1)CC(CN1CCC2(CC1)CN(c1ccc4c(n1)NC(=O)CO4)C(=O)O2)C3 (single isomer, unassigned) [Example 170, 6-[2-Oxo-8-[[2-(2-aminoethyl)-5-fluoro-7,8-dihydro-6H-cyclopenta[e]benzotriazol-7-yl]methyl]-1-oxa-3,8-diazaspiro[4.5]decan-3-yl]-4H-pyrido[3,2-b][1,4]oxazin-3-one dihydrochloride] | – | Escherichia coli growth inhibition MIC (dihydrochloride): 0.25 µg/mL
NCCn1nc2cc(F)c3c(c2n1)CC(CN1CCC2(CC1)CN(c1ccc4c(n1)NC(=O)CO4)C(=O)O2)C3 (single isomer, unassigned) [Example 171, 6-[2-Oxo-8-[[2-(2-aminoethyl)-5-fluoro-7,8-dihydro-6H-cyclopenta[e]benzotriazol-7-yl]methyl]-1-oxa-3,8-diazaspiro[4.5]decan-3-yl]-4H-pyrido[3,2-b][1,4]oxazin-3-one dihydrochloride] | – | Escherichia coli growth inhibition MIC (dihydrochloride): ≤0.06 µg/mL
Cc1nc2c(F)c3c(c(F)c2[nH]1)CC(CNCCC1CN(c2cnc4c(n2)NC(=O)CO4)C(=O)O1)C3 (stereo not drawn) [Example 1, 6-[5-[2-[(4,8-Difluoro-2-methyl-3,5,6,7-tetrahydrocyclopenta[f]benzimidazol-6-yl)methylamino]ethyl]-2-oxo-oxazolidin-3-yl]-4H-pyrazino[2,3-b][1,4]oxazin-3-one] | 0.5 µg/mL (≈ 1 µM) | –
CN(C)Cc1nc2c(F)c3c(c(F)c2[nH]1)CC(CNCCC1CN(c2cnc4c(n2)NC(=O)CO4)C(=O)O1)C3 (stereo not drawn) [Example 2, 6-[5-[2-[[2-[(dimethylamino)methyl]-4,8-difluoro-3,5,6,7-tetrahydrocyclopenta[f]benzimidazol-6-yl]methylamino]ethyl]-2-oxo-oxazolidin-3-yl]-4H-pyrazino[2,3-b][1,4]oxazin-3-one] | 0.5 µg/mL (≈ 0.922 µM) | –
CN(C)Cc1nc2c(F)c3c(c(F)c2[nH]1)CC(CN1CCC2(CC1)CN(c1cnc4c(n1)NC(=O)CO4)C(=O)O2)C3 [Example 3, 6-[8-[[2-[(dimethylamino)methyl]-4,8-difluoro-3,5,6,7-tetrahydrocyclopenta[f]benzimidazol-6-yl]methyl]-2-oxo-1-oxa-3,8-diazaspiro[4.5]decan-3-yl]-4H-pyrazino[2,3-b][1,4]oxazin-3-one] | 0.25 µg/mL (≈ 0.44 µM) | –
